According to publication PMC5843811, “^44Sc for labeling of DOTA- and NODAGA-functionalized peptides: preclinical in vitro and in vivo investigations” (EJNMMI Radiopharmacy and Chemistry, 2016):
Like-named read-outs stand apart in the source and are kept apart here.

What was measured:
in vivo = conditions: female, CD-1 nude (athymic nude), mouse, iv, 5 MBq per mouse, total radioactivity, Biodistribution
Procedure: (§1) Female athymic nude mice (CD-1 nude), age 5–6 weeks, were obtained from Charles River Laboratories, Sulzfeld, Germany. U87MG cells and AR42J-cells were suspended in PBS (5 × 10^6 cells in 100 μL) and subcutaneously inoculated on each shoulder. Two to three weeks later, when the tumor reached a size of about 300–500 mm^3, the mice were used for the in vivo studies.
(§2) Biodistribution studies were performed with U87MG tumor and AR42J tumor-bearing mice 2 weeks after tumor cell inoculation. ^44Sc- and ^68Ga-labeled peptides (~5 MBq, ~1 nmol per mouse) were intravenously injected in a volume of 100–200 μL. Mice were sacrificed at 30 min, 2 h and 5 h after injection (p.i.) of the ^44Sc-labeled peptides. Mice which were injected with ^68Ga-labeled peptides were sacrificed at 30 min and 2 h p.i. Selected tissues and organs were collected, weighed, and counted for radioactivity using a γ-counter (Wallac Wizard 1480, Perkin Elmer). The results were listed as a percentage of the injected activity per gram of tissue mass (% IA/g), using counts of a defined volume of the original injection solution counted at the same time. The data were analyzed for significance using a two-way ANOVA test (Graph Pad Prism 6 software, version 6.05). A p-value of < 0.05 was considered statistically significant.

AR42J tumor-bearing mice [1] = conditions: female, CD-1 nude (athymic nude), mouse, in vivo, iv, 5 MBq per mouse
Procedure: as §1, §2

[2] = Metal challenge stability in saline with 10 mM Cu^2+ (TLC); format: physicochemical; conditions: 0.9 % NaCl with 10 mM Cu^2+, 37 °C, after two half-lives, 80–100 MBq in 800 μL
Procedure: Aliquots were taken from the prepared solutions at different time points over at least four half-lives, respectively, of ^44Sc and ^68Ga and analyzed by TLC (TLC was used, as the high metal concentrations used in this study may impair the long-term performance of HPLC columns). […] The TLC plates (Silica-gel 60, Merck) were developed using 0.1 M sodium citrate (pH 4.7) as mobile phase. The quantitative distribution of radioactivity was determined with an autoradiography system (Cyclone Plus, Perkin Elmer) and its associated software (Optiquant, version 5.0).
The influence of high metal cation concentration on the stability of ^44Sc and ^68Ga labeled peptides was monitored in solutions containing 0.01 M Fe^3+ or Cu^2+. An aqueous metal cation solution (16 μL of a 0.5 M Fe^3+/Cu^2+ solution) was added to 80–100 MBq of ^44Sc or ^68Ga labeling solution and diluted with 0.9 % NaCl solution to a volume of 800 μL. The incubation conditions, time points of retrieving samples and analysis by TLC were kept the same, as described above.

[3] = Biodistribution in AR42J tumor-bearing mice; conditions: female, CD-1 nude (athymic nude), mouse, AR42J tumor / liver, iv, total radioactivity, Tumor-to-liver ratio, i.v. ~5 MBq (~1 nmol), 2 h p.i., mean ± SD, n=3
Procedure: as §1, §2

AR42J tumor-bearing mice [4] = assay: PET/CT imaging of AR42J tumor-bearing mice; conditions: 3 h after i.v. injection of ~10 MBq (~1 nmol; ^44Sc-NODAGA-NOC ~3 nmol), one or two mice
Procedure: A bench-top preclinical PET scanner (G8, Sofie Biosciences, California, U.S.A. and Perkin Elmer, Massachusetts, U.S.A.) was employed for the PET scans of the tumor-bearing mice. The energy window was set to 150–650 keV. Mice were injected intravenously with ^44Sc- or ^68Ga-labeled peptides (~10 MBq, ~1 nmol per mouse) in a volume of 100–200 μL. The PET scans were performed 3 h and 5 h after injection of the ^44Sc-labeled peptides and 3 h after injection of the ^68Ga-labeled peptides, using G8 acquisition software (version 2.0.0.10). All static PET scans lasted for 20 min. During the acquisition the mice were anesthetized by inhalation of a mixture of isoflurane and oxygen. The images were reconstructed with maximum-likelihood expectation maximization (MLEM). Gauss post-reconstruction filtering was performed using VivoQuant post-processing software (version 2.10, inviCRO Imaging Services and Software, Boston, U.S.A.).

[5] = Biodistribution in U87MG tumor-bearing mice; format: in vivo; conditions: female, CD-1 nude (athymic nude), mouse, U87MG tumor, iv, total radioactivity, i.v. ~5 MBq (~1 nmol), 2 h p.i., mean ± SD, n=3, read-out: Biodistribution, U87MG Tumor
Procedure: as §1, §2

C[C@@H](O)[C@@H]1NC(=O)[C@H](CCCCN)NC(=O)[C@@H](Cc2c[nH]c3ccccc23)NC(=O)[C@H](Cc2cccc3ccccc23)NC(=O)[C@@H](NC(=O)[C@@H](Cc2ccccc2)NC(=O)CN2CCN(CC(=O)O)CCN(CC(=O)O)CCN(CC(=O)O)CC2)CSSC[C@@H](C(=O)N[C@H](CO)[C@@H](C)O)NC1=O [^44Sc-DOTA-NOC, metal not drawn]
tissue uptake at 0.5 h (in vivo; Intestines): 1.02 ± 0.37 %ID/g
tissue uptake at 0.5 h (in vivo; Pancreas): 1.29 ± 0.28 %ID/g
tissue uptake at 5 h (in vivo; Pancreas): 0.57 ± 0.07 %ID/g
tissue uptake at 0.5 h (in vivo; Stomach): 1.38 ± 0.29 %ID/g
tissue uptake at 5 h (in vivo; Stomach): 0.52 ± 0.09 %ID/g
Biodistribution, Pancreas (AR42J tumor-bearing mice [1]; 2 h): 0.71 ± 0.01 % IA/g
Biodistribution, Stomach (AR42J tumor-bearing mice [1]; 2 h): 0.71 ± 0.05 % IA/g

C[C@@H](O)[C@@H]1NC(=O)[C@H](CCCCN)NC(=O)[C@@H](Cc2c[nH]c3ccccc23)NC(=O)[C@H](Cc2cccc3ccccc23)NC(=O)[C@@H](NC(=O)[C@@H](Cc2ccccc2)NC(=O)CN2CCN(CC(=O)O)CCN(CC(=O)O)CCN(CC(=O)O)CC2)CSSC[C@@H](C(=O)N[C@H](CO)[C@@H](C)O)NC1=O [^68Ga-DOTA-NOC, metal not drawn]
Biodistribution, Intestines (AR42J tumor-bearing mice [1]; 0.5 h): 0.99 ± 0.13 % IA/g
Biodistribution, Pancreas (AR42J tumor-bearing mice [1]; 0.5 h): 2.48 ± 0.11 % IA/g
Biodistribution, Stomach (AR42J tumor-bearing mice [1]; 0.5 h): 2.27 ± 0.21 % IA/g
Biodistribution, Pancreas (AR42J tumor-bearing mice [1]; 2 h): 1.70 ± 0.22 % IA/g
Biodistribution, Stomach (AR42J tumor-bearing mice [1]; 2 h): 1.68 ± 0.27 % IA/g

N=C(N)NCCC[C@@H]1NC(=O)[C@H](CCCCNC(=O)CN2CCN(CC(=O)O)CCN(CC(=O)O)CCN(CC(=O)O)CC2)NC(=O)[C@@H](Cc2ccccc2)NC(=O)[C@H](CC(=O)O)NC(=O)CNC1=O [^68Ga-DOTA-RGD, metal not drawn]
Amount of intact compound in presence of 10 mM Cu^2+ [2]: 10%

C[C@@H](O)[C@@H]1NC(=O)[C@H](CCCCN)NC(=O)[C@@H](Cc2c[nH]c3ccccc23)NC(=O)[C@H](Cc2cccc3ccccc23)NC(=O)[C@@H](NC(=O)[C@@H](Cc2ccccc2)NC(=O)CCC(C(=O)O)N2CCN(CC(=O)O)CCN(CC(=O)O)CC2)CSSC[C@@H](C(=O)N[C@H](CO)[C@@H](C)O)NC1=O (stereo partly shown) [^68Ga-NODAGA-NOC, metal not drawn]
tissue to tissue ratio at 2 h [3]: 5.88 ± 0.68
PET/CT distribution of radioactivity (in words) (AR42J tumor-bearing mice [4]): accumulated solely in tumors and kidneys

N=C(N)NCCC[C@@H]1NC(=O)[C@H](CCCCNC(=O)CCC(C(=O)O)N2CCN(CC(=O)O)CCN(CC(=O)O)CC2)NC(=O)[C@@H](Cc2ccc(O)cc2)NC(=O)[C@H](CC(=O)O)NC(=O)CNC1=O (stereo partly shown) [^68Ga-NODAGA-RGD, metal not drawn]
tissue uptake at 2 h [5]: 3.13 ± 0.27 %ID/g
